Assay in all cases: Kinase activity test (ReactionBiology), % enzyme activity relative to DMSO
What all share (format): biochemical

For one experiment, the target named is T1, DAPK1 (Homo sapiens, UniProt P53355).
T1 construct: purchased ReactionBiology

For the next experiment, the target named is T2, EPHB4 (Homo sapiens, UniProt P54760).
T2 construct: purchased ReactionBiology
T2 sequence (P54760 16-987): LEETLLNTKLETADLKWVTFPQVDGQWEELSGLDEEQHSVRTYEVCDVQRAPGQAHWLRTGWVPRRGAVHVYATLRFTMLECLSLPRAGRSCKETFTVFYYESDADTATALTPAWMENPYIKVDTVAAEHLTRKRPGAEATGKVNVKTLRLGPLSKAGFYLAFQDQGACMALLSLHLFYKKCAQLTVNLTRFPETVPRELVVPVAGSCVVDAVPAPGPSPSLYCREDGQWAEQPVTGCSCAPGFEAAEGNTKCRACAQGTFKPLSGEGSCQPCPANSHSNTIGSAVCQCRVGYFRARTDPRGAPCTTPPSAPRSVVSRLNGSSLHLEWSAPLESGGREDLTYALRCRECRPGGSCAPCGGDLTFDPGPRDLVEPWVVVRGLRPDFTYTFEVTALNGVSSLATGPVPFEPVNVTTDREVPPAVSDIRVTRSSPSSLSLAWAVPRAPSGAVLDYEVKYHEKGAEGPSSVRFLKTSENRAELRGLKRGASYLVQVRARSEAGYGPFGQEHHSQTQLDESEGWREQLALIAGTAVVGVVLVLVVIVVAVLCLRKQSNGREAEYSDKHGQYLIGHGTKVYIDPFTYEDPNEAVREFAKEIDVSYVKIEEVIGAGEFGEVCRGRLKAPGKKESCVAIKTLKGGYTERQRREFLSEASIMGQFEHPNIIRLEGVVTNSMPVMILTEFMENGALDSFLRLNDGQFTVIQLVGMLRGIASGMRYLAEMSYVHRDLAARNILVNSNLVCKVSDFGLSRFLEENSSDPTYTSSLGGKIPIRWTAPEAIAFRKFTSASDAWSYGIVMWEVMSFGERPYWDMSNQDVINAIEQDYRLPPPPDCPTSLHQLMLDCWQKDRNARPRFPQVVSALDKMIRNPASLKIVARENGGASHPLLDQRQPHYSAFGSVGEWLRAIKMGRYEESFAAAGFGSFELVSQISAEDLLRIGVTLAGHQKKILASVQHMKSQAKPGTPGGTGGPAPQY

A further experiment addresses T3, CK1d (Homo sapiens, UniProt P48730).
T3 construct: purchased ReactionBiology

A further experiment concerns the target VEGFR2 (Homo sapiens, UniProt P35968). Details: purchased ReactionBiology. The following applies: for % Enzyme Activity (relative to DMSO controls), Average / remaining activity at 1 µM / remaining activity at 10 µM: VEGFR2.
[1] abbreviates: DAPK1, 1 uM, Average, read-out: % Enzyme Activity (relative to DMSO controls), Average.
The mark [2] stands for this setting: DAPK1, 1 uM, replicate Data 1, read-out: % Enzyme Activity (relative to DMSO controls), Data 1.
The mark [3] stands for this setting: DAPK1, 1 uM, replicate Data 2, read-out: % Enzyme Activity (relative to DMSO controls), Data 2.
Setting [4] is: DAPK1, 10 uM, Average, read-out: % Enzyme Activity (relative to DMSO controls), Average.
[5] abbreviates: DAPK1, 10 uM, replicate Data 1, read-out: % Enzyme Activity (relative to DMSO controls), Data 1.
[6] abbreviates: DAPK1, 10 uM, replicate Data 2, read-out: % Enzyme Activity (relative to DMSO controls), Data 2.
Setting [7] is: EPHB4, 1 uM, Average, read-out: % Enzyme Activity (relative to DMSO controls), Average.
[8] abbreviates: EPHB4, 1 uM, replicate Data 1, read-out: % Enzyme Activity (relative to DMSO controls), Data 1.
Setting [9] is: EPHB4, 1 uM, replicate Data 2, read-out: % Enzyme Activity (relative to DMSO controls), Data 2.
The mark [10] stands for this setting: EPHB4, 10 uM, Average, read-out: % Enzyme Activity (relative to DMSO controls), Average.
The mark [11] stands for this setting: EPHB4, 10 uM, replicate Data 1, read-out: % Enzyme Activity (relative to DMSO controls), Data 1.
Where [12] appears, read: EPHB4, 10 uM, replicate Data 2, read-out: % Enzyme Activity (relative to DMSO controls), Data 2.

“And” between values parts separate entries of the source, which are not always exact repeats. Equal entries are not always repeated. Where two headings read alike, the source gives them in different places.

Chain of VEGFR2 (P35968 20-1356): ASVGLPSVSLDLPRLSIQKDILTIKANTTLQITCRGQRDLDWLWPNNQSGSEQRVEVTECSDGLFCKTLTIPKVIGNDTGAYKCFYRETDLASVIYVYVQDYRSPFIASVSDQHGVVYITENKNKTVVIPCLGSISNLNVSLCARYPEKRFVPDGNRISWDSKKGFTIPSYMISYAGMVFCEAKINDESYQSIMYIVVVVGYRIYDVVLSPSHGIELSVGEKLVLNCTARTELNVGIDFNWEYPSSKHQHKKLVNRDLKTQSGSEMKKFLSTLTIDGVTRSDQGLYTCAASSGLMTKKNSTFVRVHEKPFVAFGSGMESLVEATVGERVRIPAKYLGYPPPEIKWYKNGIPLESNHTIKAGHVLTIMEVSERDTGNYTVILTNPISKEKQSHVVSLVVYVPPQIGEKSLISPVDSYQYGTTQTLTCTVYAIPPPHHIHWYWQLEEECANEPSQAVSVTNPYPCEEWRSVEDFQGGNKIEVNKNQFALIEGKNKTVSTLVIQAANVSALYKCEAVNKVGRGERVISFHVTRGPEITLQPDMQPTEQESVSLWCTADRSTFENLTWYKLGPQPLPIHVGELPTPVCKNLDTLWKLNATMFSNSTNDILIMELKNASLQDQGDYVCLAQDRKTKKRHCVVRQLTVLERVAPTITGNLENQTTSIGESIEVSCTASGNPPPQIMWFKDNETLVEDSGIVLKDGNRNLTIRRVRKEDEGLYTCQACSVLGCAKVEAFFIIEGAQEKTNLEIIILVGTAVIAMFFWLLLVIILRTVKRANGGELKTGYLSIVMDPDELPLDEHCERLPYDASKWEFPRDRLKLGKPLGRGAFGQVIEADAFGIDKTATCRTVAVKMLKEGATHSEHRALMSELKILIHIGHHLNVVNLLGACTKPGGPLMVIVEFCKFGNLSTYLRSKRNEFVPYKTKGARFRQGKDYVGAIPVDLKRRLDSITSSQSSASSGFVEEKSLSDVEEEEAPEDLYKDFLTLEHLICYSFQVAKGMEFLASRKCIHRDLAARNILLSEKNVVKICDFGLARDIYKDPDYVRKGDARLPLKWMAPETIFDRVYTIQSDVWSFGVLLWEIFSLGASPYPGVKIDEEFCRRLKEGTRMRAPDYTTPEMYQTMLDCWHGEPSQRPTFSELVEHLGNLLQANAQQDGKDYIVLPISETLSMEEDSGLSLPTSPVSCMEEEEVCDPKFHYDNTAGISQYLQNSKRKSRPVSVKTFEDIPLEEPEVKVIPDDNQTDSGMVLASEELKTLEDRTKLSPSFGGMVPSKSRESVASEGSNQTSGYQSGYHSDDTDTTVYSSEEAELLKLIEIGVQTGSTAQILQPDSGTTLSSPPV
T1 sequence (P53355 whole entry): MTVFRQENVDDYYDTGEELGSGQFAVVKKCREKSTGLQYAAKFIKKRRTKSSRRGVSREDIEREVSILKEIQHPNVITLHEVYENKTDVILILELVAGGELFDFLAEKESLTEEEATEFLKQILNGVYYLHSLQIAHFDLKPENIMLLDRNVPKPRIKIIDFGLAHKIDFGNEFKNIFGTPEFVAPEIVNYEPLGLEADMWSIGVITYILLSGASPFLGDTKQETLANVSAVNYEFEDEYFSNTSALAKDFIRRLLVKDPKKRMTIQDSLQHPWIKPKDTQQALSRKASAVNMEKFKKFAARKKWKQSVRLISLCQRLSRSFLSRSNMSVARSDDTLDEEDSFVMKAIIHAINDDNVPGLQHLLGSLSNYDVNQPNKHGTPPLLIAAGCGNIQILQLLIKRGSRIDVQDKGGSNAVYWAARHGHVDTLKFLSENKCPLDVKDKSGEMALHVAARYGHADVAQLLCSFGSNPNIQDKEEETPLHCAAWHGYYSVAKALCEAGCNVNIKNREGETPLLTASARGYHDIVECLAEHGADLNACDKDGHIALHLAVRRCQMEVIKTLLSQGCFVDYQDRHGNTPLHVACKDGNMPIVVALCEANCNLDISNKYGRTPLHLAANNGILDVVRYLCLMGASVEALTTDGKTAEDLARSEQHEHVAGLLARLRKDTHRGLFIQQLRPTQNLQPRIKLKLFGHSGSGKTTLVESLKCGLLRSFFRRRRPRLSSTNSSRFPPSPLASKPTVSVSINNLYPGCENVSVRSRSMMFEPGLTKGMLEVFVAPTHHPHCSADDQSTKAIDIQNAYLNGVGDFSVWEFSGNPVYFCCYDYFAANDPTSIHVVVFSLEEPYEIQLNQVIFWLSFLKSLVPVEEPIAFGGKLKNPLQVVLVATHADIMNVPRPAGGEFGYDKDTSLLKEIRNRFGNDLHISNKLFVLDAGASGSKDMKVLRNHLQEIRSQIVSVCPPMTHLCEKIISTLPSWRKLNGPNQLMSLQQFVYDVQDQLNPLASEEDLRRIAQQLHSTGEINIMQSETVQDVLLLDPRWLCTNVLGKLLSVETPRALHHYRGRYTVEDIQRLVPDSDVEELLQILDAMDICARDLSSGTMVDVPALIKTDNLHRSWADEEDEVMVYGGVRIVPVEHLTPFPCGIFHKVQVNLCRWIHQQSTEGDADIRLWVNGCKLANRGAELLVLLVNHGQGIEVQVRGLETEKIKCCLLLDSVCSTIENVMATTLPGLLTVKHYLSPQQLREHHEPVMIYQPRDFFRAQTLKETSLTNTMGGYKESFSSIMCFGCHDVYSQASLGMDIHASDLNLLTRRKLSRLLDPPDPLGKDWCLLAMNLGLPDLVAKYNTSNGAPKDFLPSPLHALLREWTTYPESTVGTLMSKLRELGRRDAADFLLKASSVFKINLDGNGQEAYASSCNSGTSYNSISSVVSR
T3 sequence (P48730 whole entry): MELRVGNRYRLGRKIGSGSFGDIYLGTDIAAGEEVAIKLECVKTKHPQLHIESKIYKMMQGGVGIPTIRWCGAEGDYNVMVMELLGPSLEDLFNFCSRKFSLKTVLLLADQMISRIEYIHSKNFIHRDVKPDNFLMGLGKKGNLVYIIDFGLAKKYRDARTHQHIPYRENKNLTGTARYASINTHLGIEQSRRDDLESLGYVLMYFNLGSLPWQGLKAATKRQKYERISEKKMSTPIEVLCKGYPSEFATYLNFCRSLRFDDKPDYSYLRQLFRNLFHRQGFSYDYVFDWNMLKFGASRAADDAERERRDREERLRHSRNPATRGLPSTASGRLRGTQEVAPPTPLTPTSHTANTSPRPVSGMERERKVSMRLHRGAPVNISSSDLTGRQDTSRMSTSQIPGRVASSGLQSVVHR

As for `NCCCCCC(=O)O` [Aminocaproic acid], the remaining activity at 1 µM on DAPK1 (setting [1]) was 114%; on DAPK1 (setting [2]), 116%; on DAPK1 (setting [3]), 112%; on EPHB4 (setting [7]) it was 103%; on EPHB4 (setting [8]) it was 103%; at EPHB4 (setting [9]), 104%. Further, the remaining activity at 1 µM on CK1d (CK1d, 1 uM, Average, read-out: % Enzyme Activity (relative to DMSO controls), Average) was found to be 118%; at CK1d (CK1d, 1 uM, replicate Data 1, read-out: % Enzyme Activity (relative to DMSO controls), Data 1), 116%; at CK1d (CK1d, 1 uM, replicate Data 2, read-out: % Enzyme Activity (relative to DMSO controls), Data 2), 120%. For the same compound, the remaining activity at 10 µM was determined as 110% on DAPK1 (setting [4]); 109% on DAPK1 (setting [5]); 111% at DAPK1 (setting [6]); 93.5% at EPHB4 (setting [10]); 92.2% at EPHB4 (setting [11]); 94.7% on EPHB4 (setting [12]). The remaining activity at 10 µM is 125% at CK1d (CK1d, 10 uM, Average, read-out: % Enzyme Activity (relative to DMSO controls), Average); 122% on CK1d (CK1d, 10 uM, replicate Data 1, read-out: % Enzyme Activity (relative to DMSO controls), Data 1); 127% at CK1d (CK1d, 10 uM, replicate Data 2, read-out: % Enzyme Activity (relative to DMSO controls), Data 2).

For the compound `Cc1ccc(-c2cc(C(F)(F)F)nn2-c2ccc(S(N)(=O)=O)cc2)cc1` [Celecoxib], the “% Enzyme Activity (relative to DMSO controls), Average” value on EPHB4 (EPHB4, 1 uM, Average) was 103.20%; on EPHB4 (EPHB4, 10 uM, Average) it was 99.23%; on CK1d (CK1d, 1 uM, Average) it was 94.68%; on VEGFR2 (1 uM, Average), 113.33%; at VEGFR2 (10 uM, Average), 110.02%.

As for `CN1CCC[C@H]1c1cccnc1` [Nicotine], on DAPK1, the “% Enzyme Activity (relative to DMSO controls), Average” value was 100.32% and 100.82%; the “% Enzyme Activity (relative to DMSO controls), Data 1” value was 100.9% and 106.33%; the “% Enzyme Activity (relative to DMSO controls), Data 2” value is 99.74% and 95.31%. Besides, on EPHB4, the “% Enzyme Activity (relative to DMSO controls), Average” value is 98.32% and 87.80%; the “% Enzyme Activity (relative to DMSO controls), Data 1” value is 99.28% and 89.89%; the “% Enzyme Activity (relative to DMSO controls), Data 2” value is 97.35% and 85.7%.

Take `Fc1ccc([C@@H]2CCNC[C@H]2COc2ccc3c(c2)OCO3)cc1` [Paroxetine]: the “% Enzyme Activity (relative to DMSO controls), Average” value on EPHB4 (EPHB4, 1 uM, Average) is 110.35%; on EPHB4 (EPHB4, 10 uM, Average), 94.48%; on CK1d (CK1d, 10 uM, Average), 105.10%; at VEGFR2 (1 uM, Average), 108.60%; on VEGFR2 (10 uM, Average) it was 108.08%.

Consider `CC(C)c1nc(CN(C)C(=O)N[C@H](C(=O)N[C@@H](Cc2ccccc2)C[C@H](O)[C@H](Cc2ccccc2)NC(=O)OCc2cncs2)C(C)C)cs1` [Ritonavir, reference compound], for which the remaining activity at 1 µM at DAPK1 (setting [1]) was 92.6%; at DAPK1 (setting [2]), 94.8%; at DAPK1 (setting [3]), 90.4%; at DAPK1 (DAPK1, compound 1μM, relative to DMSO controls, read-out: % Enzyme activity at 1μM) it was 92.6%; at EPHB4 (setting [7]) it was 99.2%; at EPHB4 (setting [8]), 99.5%. In addition, the remaining activity at 1 µM was determined as 98.9% at EPHB4 (setting [9]); 111% at VEGFR2 (1 uM, Average, read-out: % Enzyme Activity (relative to DMSO controls), Average); 111% on VEGFR2 (1 uM, replicate Data 1, read-out: % Enzyme Activity (relative to DMSO controls), Data 1); 112% at VEGFR2 (1 uM, replicate Data 2, read-out: % Enzyme Activity (relative to DMSO controls), Data 2). The remaining activity at 10 µM on DAPK1 (setting [4]) was determined as 38.5%; on DAPK1 (setting [5]), 39.2%; at DAPK1 (setting [6]), 37.7%; at DAPK1 (DAPK1, compound 10μM, relative to DMSO controls, read-out: % Enzyme activity at 10μM), 38.5%; on EPHB4 (setting [10]), 95.1%; on EPHB4 (setting [11]) it was 97.2%. Moreover, the remaining activity at 10 µM on EPHB4 (setting [12]) amounted to 93.1%; at VEGFR2 (10 uM, Average, read-out: % Enzyme Activity (relative to DMSO controls), Average) it was 109%; at VEGFR2 (10 uM, replicate Data 1, read-out: % Enzyme Activity (relative to DMSO controls), Data 1), 113%; on VEGFR2 (10 uM, replicate Data 2, read-out: % Enzyme Activity (relative to DMSO controls), Data 2) it was 106%.

Regarding `CS(=O)(=O)c1ccc(C2=C(c3ccccc3)C(=O)OC2)cc1` [Rofecoxib], the “% Enzyme Activity (relative to DMSO controls), Average” value on DAPK1 (DAPK1, 1 uM, Average) amounted to 107.94%; at DAPK1 (DAPK1, 10 uM, Average), 91.65%; at EPHB4 (EPHB4, 1 uM, Average), 93.84%; at EPHB4 (EPHB4, 10 uM, Average), 82.31%. For the same compound, the “% Enzyme Activity (relative to DMSO controls), Data 1” value at DAPK1 (DAPK1, 1 uM, replicate Data 1) came out at 111.72%; at DAPK1 (DAPK1, 10 uM, replicate Data 1) it was 92.47%; at EPHB4 (EPHB4, 1 uM, replicate Data 1) it was 92.91%; on EPHB4 (EPHB4, 10 uM, replicate Data 1) it was 77.99%. In addition, the “% Enzyme Activity (relative to DMSO controls), Data 2” value on DAPK1 (DAPK1, 1 uM, replicate Data 2) is given as 104.16%; on DAPK1 (DAPK1, 10 uM, replicate Data 2), 90.82%; on EPHB4 (EPHB4, 1 uM, replicate Data 2) it was 94.77%; at EPHB4 (EPHB4, 10 uM, replicate Data 2), 86.63%.

`Nc1c2c(nc3ccccc13)CCCC2` [Tacrine]: the “% Enzyme Activity (relative to DMSO controls), Data 2” value was 73.14% and 73.39% at EPHB4; 118.35% at CK1d; 94.26% and 99.54% at VEGFR2.

Penicillin: the “% Enzyme Activity (relative to DMSO controls), Average” value amounted to 101.77% at EPHB4 (EPHB4, 1 uM, Average); 95.95% at EPHB4 (EPHB4, 10 uM, Average); 98.45% at CK1d (CK1d, 1 uM, Average); 115.43% at CK1d (CK1d, 10 uM, Average). Further, the “% Enzyme Activity (relative to DMSO controls), Data 1” value amounted to 104.24% on EPHB4 (EPHB4, 1 uM, replicate Data 1); 97.18% at EPHB4 (EPHB4, 10 uM, replicate Data 1); 97.41% on CK1d (CK1d, 1 uM, replicate Data 1); 111.85% on CK1d (CK1d, 10 uM, replicate Data 1). For the same compound, the “% Enzyme Activity (relative to DMSO controls), Data 2” value on EPHB4 (EPHB4, 1 uM, replicate Data 2) is 99.3%; on EPHB4 (EPHB4, 10 uM, replicate Data 2), 94.72%; at CK1d (CK1d, 1 uM, replicate Data 2), 99.49%; on CK1d (CK1d, 10 uM, replicate Data 2), 119.01%.

For the origin of these results see PMC7252619 (PLoS ONE, 2020).
